In US20060216791A1, “Method for synthesizing amino-acid-selectively labeled protein” (Mitsubishi Chemical Corporation, priority 2003, published 2006):

Key:
Format in all cases: biochemical
[1] = system: glutamine synthetase; test: Metabolism of glutamic acid to glutamine in wheat germ cell-free system, 1H-15N HSQC of synthesized yeast ubiquitin
Experimental: (§1) The mixed solution was allowed to react for 2 days with a dialysis buffer solution, wherein only one type of amino acid had been labeled with ^15N (manufactured by Cambridge Isotope Laboratories) and 19 types of remaining amino acids were ordinary amino acids. Thereafter, the dialysis buffer solution was exchanged with a fresh buffer solution, and the protein synthesis reaction was carried out further for 2 days. Thereafter, 1 ml of the reaction solution was concentrated to 250 μl using a Centricon-3 ultrafiltration concentration device manufactured by Millipore. […] The concentrated solution was passed through a Micro Spin G-25 gel filtration column manufactured by Amersham that had previously been equilibrated with a buffer solution used for NMR measurement (50 mM sodium phosphate, pH 6.5, 100 mM NaCl), so that the buffer solution was exchanged with a buffer solution used for the measurement, thereby preparing an NMR measurement sample.
(§2) For the NMR measurement, an Avance-500 spectrometer manufactured by Bruker was used. In order to maintain the stability of a magnetic field, 10% D2O used for NMR lock was added to the measurement sample, and thereafter, ^1H-^15N HSQC measurement was carried out. The measurement temperature was set at 30° C.
(§3) Subsequently, the concentration of aminooxyacetic acid in a translation solution and an external dialysis solution was set at 1 mM. The following 3 types of substrate amino acids were prepared: (1) only alanine was labeled with ^15N and 19 types of remaining amino acids were ordinary amino acids; (2) only aspartic acid was labeled with ^15N and 19 types of remaining amino acids were ordinary amino acids; and (3) only glutamic acid was labeled with ^15N and 19 types of remaining amino acids were ordinary amino acids. Using these substrate amino acids, yeast ubiquitins were synthesized by the same method as described in Example 1, and the ^1H-^15N HSQC was measured. […] Moreover, the aforementioned experiment was carried out under conditions whereby the concentration of aminooxyacetic acid was set at 0.1 μM, 1 μM, 10 μM, 100 μM, and 1 mM.
(§4) Subsequently, the concentration of aminooxyacetic acid was set at 1 mM and the concentration of L-methionine sulfoximine was set at 0.1 mM in a translation solution and an external dialysis solution. Substrate amino acid was prepared such that only glutamic acid was labeled with ^15N and 19 types of remaining amino acids were ordinary amino acids. Using such substrate amino acid, yeast ubiquitin was synthesized by the same method as described in examples, and the ^1H-^15N HSQC was measured. […] Moreover, the aforementioned experiment was carried out under conditions whereby the concentration of L-methionine sulfoximine was set at 0.1 μM, 1 μM, 10 μM, and 100 μM.

[2] = system: cell-free protein synthetic system containing a wheat germ extract; test: Amount of GFP synthesized by wheat germ cell-free protein synthesis (GFP fluorescence intensity)
[3] = system: transaminase; test: Amino acid metabolism by transaminase in wheat germ cell-free system, 1H-15N HSQC of synthesized yeast ubiquitin; conditions: for metabolism of glutamic acid to aspartic acid: only glutamic acid labeled with 15N
Experimental: as §1, §2, §3, §4

## CS(=N)(=O)CC[C@H](N)C(=O)O (stereo partly drawn) [L-methionine sulfoximine]
[1]; 0.1 mM L-methionine sulfoximine plus 1 mM aminooxyacetic acid, only glutamic acid labeled with 15N, FIG. 8
  metabolism of glutamic acid to glutamine: suppressed
[1]; L-methionine sulfoximine 10 μM
  inhibition of the metabolism: two thirds
[1]; L-methionine sulfoximine 100 μM or more
  inhibition of the metabolism: completely inhibited
[2]; L-methionine sulfoximine 20 mM or less in external dialysis solution and reaction solution, FIG. 7
  amount of GFP synthesized: not reduced

## NOCC(=O)O [aminooxyacetic acid]
[1]; 1 mM aminooxyacetic acid, only glutamic acid labeled with 15N, FIG. 6
  activity of metabolizing glutamic acid to glutamine: has still remained
[2]; aminooxyacetic acid 4 mM or less in external dialysis solution and reaction solution, FIG. 4
  amount of GFP synthesized: not reduced
[2]; aminooxyacetic acid 10 mM, FIG. 4
  synthesized amount of GFP maintained: approximately 70%
[3]; 1 mM aminooxyacetic acid plus 0.1 mM L-methionine sulfoximine, FIG. 8
  metabolism of glutamic acid to aspartic acid: suppressed
[3]; 1 mM aminooxyacetic acid, only alanine labeled with 15N, FIG. 5A
  HSQC signals observed (selective labeling): only signal derived from alanine or aspartic acid was observed
[3]; 1 mM aminooxyacetic acid, only aspartic acid labeled with 15N, FIG. 5B
  HSQC signals observed (selective labeling): only signal derived from alanine or aspartic acid was observed
[3]; 1 mM aminooxyacetic acid, FIG. 6
  metabolism of glutamic acid to aspartic acid: suppressed
[3]; aminooxyacetic acid 10 μM
  inhibition of the metabolism: two thirds
[3]; aminooxyacetic acid 100 μM or more
  inhibition of the metabolism: completely inhibited
